PMC8787096, “Antagonism of nicotinic acetycholinergic receptors by CN‐105, an apoE‐mimetic peptide reduces stroke‐induced excitotoxicity” (Clinical and Translational Medicine, 2022)
Like-named read-outs stand apart in the source and are kept apart here. Residues, ends and D or L forms follow the SMILES beside them.

Tests used:
α7-nAChR [1] = target: T1, α7-nAChR (Homo sapiens, UniProt P36544); experiment: Patch clamp of ACh-induced currents, HEK293 cells stably expressing nAChR α7/RIC3; format: cell-based; settings: for %Inhibition of α7-nAChR: peptide 200 nM, relative to currents induced by 9 μM ACh
T1 sequence (P36544 23-502): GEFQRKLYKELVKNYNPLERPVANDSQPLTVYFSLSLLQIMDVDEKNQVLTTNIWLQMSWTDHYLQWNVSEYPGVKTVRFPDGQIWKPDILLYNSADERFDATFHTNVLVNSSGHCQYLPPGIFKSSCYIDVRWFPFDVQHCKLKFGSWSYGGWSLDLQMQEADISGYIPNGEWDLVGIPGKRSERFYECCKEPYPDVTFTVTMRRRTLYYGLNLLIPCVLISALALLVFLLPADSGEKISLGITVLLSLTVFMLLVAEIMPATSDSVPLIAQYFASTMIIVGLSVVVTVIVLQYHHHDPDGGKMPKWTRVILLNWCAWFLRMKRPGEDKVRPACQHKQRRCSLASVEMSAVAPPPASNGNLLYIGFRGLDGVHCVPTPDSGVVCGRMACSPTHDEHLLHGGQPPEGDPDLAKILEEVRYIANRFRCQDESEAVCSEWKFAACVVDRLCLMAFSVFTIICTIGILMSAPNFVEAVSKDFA

NMDA receptor = experiment: Glutamate-induced currents in HEK293 cells stably expressing NMDA receptor; format: cell-based
Source text: (§1) Figure S5. Amperograms of CN-105's effect on GluR (AMPA-R) in primary rat hippocampal neuronal cultures (Left) and on GluN (NMDA-R) in a culture of HEK293 cells stably expressing NMDA receptor (Right).

α4β2-nAChR = target: T2, α4β2-nAChR (Homo sapiens, UniProt P17787+P43681); experiment: Patch clamp of HEK293 cells transiently expressing nAChR α4β2; format: cell-based; settings: four-parameter logistic fit; read-out: IC50, inhibition of α4β2-nAChR
T2 construct: expressed in transfected cells; host or cells: HEK293 (transient)
T2 sequence (P43681 29-627 limits assumed): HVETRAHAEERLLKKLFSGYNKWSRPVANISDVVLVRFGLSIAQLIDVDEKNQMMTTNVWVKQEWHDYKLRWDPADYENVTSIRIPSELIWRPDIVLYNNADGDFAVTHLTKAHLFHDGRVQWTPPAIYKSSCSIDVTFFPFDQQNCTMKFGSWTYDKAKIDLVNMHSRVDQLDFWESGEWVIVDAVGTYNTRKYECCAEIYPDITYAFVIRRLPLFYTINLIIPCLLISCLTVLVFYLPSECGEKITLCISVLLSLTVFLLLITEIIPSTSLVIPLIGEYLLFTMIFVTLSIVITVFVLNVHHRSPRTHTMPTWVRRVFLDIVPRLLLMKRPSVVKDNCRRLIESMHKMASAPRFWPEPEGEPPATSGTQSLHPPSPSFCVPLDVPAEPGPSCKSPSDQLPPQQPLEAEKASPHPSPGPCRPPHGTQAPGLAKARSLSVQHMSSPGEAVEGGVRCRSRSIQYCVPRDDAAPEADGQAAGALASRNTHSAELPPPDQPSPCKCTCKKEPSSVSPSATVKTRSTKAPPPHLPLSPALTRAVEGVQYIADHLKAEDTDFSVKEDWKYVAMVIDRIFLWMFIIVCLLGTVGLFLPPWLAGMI
T2 sequence (P17787 26-502): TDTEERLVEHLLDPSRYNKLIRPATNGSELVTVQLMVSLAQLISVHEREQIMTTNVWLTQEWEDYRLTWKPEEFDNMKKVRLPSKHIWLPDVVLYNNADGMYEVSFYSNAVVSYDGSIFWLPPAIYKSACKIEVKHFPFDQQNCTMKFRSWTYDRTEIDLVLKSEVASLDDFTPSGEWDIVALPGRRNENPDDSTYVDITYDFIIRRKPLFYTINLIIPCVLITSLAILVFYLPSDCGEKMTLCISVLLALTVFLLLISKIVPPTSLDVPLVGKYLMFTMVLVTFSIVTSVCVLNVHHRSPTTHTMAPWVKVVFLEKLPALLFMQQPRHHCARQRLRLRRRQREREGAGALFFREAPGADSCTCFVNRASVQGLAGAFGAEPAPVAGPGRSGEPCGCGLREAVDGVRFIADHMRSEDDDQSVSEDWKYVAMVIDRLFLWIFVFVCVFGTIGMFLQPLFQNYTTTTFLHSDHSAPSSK
Description: The patch clamp recording was performed on the third or fourth day after transfection based on the expression level of co-transfected GFP gene. Detailed description of the transfection procedures can be found in the Supporting information.
nAChR α4β2: HEK293 cells were seeded on poly-D-lysine-coated coverslips placed in a 24-well plate at a density of 8×10^3 cells per well. Cells were transfected with nAChR α4/nAChR β2/GFP with the ratio 2:2:1. The X-tremeGENE HP DNA (Roche) was used for transfection, and the ratio of plasmid to transfection reagent was 1 μg: 2 μL.

[2] = monkey, in vivo, iv
in vivo [3] = settings: both, monkey, iv
[4] = test system: SD rats, transient ischemic stroke; experiment: Transient middle cerebral artery occlusion (t-MCAO) model; format: in vivo, rat; settings: Day 8; for Infarct volume: rat t-MCAO
Description: Eighty-three Sprague-Dawley (SD) rats were randomly divided into six groups with both sexes as follows: 1) sham group (n=8), 2) vehicle group (n=15), 3) 0.1 mg/kg CN105 (n=15), 4) 0.2 mg/kg CN105 (n=15), 5) 0.4 mg/kg CN-105 (n=15), 6) 6mg/kg edaravone (n=15). Ischemic insult was introduced based on pre-established protocol. Briefly, rats were placed supine under anesthesia, and then the left common carotid arteries were exposed under sterile conditions. A suture was gently inserted into the internal carotid artery through the external carotid artery until the origin of the middle cerebral artery was occluded. The suture thread was removed 90 min after the ischemia, allowing restoration of the blood supply. Animals in the sham group were exposed of the left common carotid artery under anesthesia without ischemic occlusion. A single dose of CN-105 or edaravone were administered intravenously (iv.) 30min after reperfusion. The injection volume was 5mL/kg, given in 2 min. Animals in each group were euthanized at the end of the experiment. Brains were fixed in 10% formalin. The 3 mm-thick coronal brain sections were scanned and imaged to measure the percentage of viable and infarction brain tissue to calculate the percentage of cerebral infarction volume.

[5] = test system: rat hippocampal brain slices; experiment: EPSC recording (evoked, spontaneous, miniature) in hippocampal brain slices; format: cell-based
in vivo [6] = settings: both, SD, rat, iv
Cynologous monkey = experiment: GLP acute toxicology study, iv infusion; format: in vivo
Description: The acute toxicology study of CN-105 was carried out at the facility of CTI Biotechnology (China) in accordance with GLP guidelines of the National Medical Product Administration (NMPA) of China. Briefly, six Cynologous (Cyn) monkeys were assigned to three dosing groups (n = 2/group, M:F= 1:1). The animals were given an iv. infusion of saline (Group 1), 25 mg/kg CN-105 (Group 2) or 100 mg/kg CN-105 (Group 3) twice a day. The infusion volume was 20mL/kg, while the infusion rate was 30min. Forty SD rats were assigned to four dosing groups (n = 10/group, M:F= 1:1) and were given an iv. injection of saline (Group 1), 15 mg/kg CN-105 (Group 2), 30 mg/kg CN-105 (Group 3) or 45 mg/kg CN-105 (Group 4) twice a day. The infusion volume was 5mL/kg, while the infusion rate was 10min. Animals were monitored for a variety of behavioral, physiological, histological and serological endpoints.

AMPA receptor = experiment: Glutamate-induced currents of AMPA receptor in primary hippocampal neuronal cultures; format: cell-based; settings: primary rat hippocampal neuronal cultures
Description: Rat primary neuronal culture: Primary neuron cultures were prepared from newborn rats. A mixed culture of hippocampal, cortical and thalamic neurons was used for calcium imaging assays. For patch clamp studies, hippocampal neurons from the CA1 region were extracted. The trypsinized brain tissue was incubated at 37°C for 20 minutes before the removal of the enzyme. The cells were washed three times with PBS and suspended with fresh media before being plated on poly-D-lysine-coated coverslips. After 4 h, the media was replaced by Neurobasal+B27+L-Glu (Thermo scientific, USA). Half of the culture medium was changed after 24 h before switched to a 72-hr medium change routine.
as §1

α1β1δε-nAChR = target: T3, α1β1δε-nAChR (Homo sapiens, UniProt P02708+P11230+Q04844+Q07001); experiment: Electrophysiology of oocytes injected with nAChR α, β, δ and ε cRNA; format: cell-based
T3 construct: expressed in transfected cells
T3 sequence (P02708 21-457): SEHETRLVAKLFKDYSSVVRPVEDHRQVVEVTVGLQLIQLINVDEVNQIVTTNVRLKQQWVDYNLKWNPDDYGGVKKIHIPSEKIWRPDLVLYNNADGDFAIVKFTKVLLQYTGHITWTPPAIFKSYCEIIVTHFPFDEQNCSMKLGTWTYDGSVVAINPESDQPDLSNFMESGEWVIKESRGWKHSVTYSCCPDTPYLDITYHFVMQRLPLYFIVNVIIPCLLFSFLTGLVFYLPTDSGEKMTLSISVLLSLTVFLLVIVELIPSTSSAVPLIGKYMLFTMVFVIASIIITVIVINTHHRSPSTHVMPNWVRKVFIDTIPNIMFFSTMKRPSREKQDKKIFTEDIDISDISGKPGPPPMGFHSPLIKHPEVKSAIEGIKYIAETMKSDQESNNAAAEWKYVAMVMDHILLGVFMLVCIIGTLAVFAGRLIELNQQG
T3 sequence (P11230 24-501): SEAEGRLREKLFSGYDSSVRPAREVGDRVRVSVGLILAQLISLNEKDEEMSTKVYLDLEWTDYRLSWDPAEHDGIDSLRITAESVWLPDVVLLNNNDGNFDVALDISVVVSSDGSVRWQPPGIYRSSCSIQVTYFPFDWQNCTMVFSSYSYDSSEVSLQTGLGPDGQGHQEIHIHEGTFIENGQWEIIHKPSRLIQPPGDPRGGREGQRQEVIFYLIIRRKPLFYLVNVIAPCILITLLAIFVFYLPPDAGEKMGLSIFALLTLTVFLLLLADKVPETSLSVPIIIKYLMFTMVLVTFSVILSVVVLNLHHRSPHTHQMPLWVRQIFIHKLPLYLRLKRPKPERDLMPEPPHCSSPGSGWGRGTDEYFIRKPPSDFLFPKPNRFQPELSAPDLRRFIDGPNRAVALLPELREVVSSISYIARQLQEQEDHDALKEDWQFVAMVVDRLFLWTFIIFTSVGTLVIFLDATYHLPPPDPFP
T3 sequence (Q07001 22-517): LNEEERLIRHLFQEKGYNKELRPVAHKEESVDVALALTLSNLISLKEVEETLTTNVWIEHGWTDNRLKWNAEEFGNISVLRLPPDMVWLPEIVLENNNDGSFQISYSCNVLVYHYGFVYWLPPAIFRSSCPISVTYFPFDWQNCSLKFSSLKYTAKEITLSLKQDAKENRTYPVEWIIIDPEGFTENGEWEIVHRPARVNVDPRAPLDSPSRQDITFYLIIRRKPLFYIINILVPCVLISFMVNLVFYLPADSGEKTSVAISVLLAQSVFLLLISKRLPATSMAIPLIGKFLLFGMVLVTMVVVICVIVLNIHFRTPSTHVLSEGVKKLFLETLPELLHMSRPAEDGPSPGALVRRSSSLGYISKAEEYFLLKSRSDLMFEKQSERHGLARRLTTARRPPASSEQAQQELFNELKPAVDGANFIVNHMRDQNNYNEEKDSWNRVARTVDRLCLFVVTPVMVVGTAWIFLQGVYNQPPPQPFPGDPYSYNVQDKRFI
T3 sequence (Q04844 21-493): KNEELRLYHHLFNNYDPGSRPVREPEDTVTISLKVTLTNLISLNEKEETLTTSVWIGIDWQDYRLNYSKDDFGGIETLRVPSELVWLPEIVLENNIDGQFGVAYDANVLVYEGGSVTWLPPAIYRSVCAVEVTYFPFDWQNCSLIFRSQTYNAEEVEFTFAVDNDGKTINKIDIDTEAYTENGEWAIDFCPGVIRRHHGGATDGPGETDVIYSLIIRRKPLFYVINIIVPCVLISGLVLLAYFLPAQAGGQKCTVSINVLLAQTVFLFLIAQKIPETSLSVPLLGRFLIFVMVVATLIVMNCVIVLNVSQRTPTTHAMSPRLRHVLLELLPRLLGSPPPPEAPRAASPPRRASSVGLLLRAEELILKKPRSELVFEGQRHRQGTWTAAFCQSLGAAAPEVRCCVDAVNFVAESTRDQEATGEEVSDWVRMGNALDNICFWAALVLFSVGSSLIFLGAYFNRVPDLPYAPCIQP

C57BL6 mice = experiment: Mortality of C57BL6 mice after a single tail vein injection; format: in vivo
[7] = rat, in vivo, iv
α7-nAChR [8] = target: T1, α7-nAChR

## CC(=O)N[C@@H](C)C(=O)N[C@@H](CO)C(=O)N[C@@H](CCCNC(=N)N)C(=O)N[C@@H](CCCNC(=N)N)C(=O)N[C@@H](CCCNC(=N)N)C(N)=O [Ac-ASRRR-NH2] (Ac-ASRRR-NH2)
α7-nAChR [1]
  %Inhibition of α7-nAChR: 7.4%

## CSCC[C@H](NC(C)=O)C(=O)N[C@@H](CO)C(=O)N[C@@H](CCCNC(=N)N)C(=O)N[C@@H](CCCNC(=N)N)C(=O)N[C@@H](CCCNC(=N)N)C(N)=O [Ac-MSRRR-NH2] (Ac-MSRRR-NH2)
α7-nAChR [1]
  %Inhibition of α7-nAChR: 38.3%

## CC(=O)N[C@@H](CCCNC(=N)N)C(=O)N[C@@H](CO)C(=O)N[C@@H](CCCCN)C(=O)N[C@@H](CCCNC(=N)N)C(=O)N[C@@H](CCCNC(=N)N)C(N)=O [Ac-RSKRR-NH2] (Ac-RSKRR-NH2)
α7-nAChR [1]
  %Inhibition of α7-nAChR: 9.3%

## CC(=O)N[C@H](C(=O)N[C@@H](CS)C(=O)N[C@@H](CCCNC(=N)N)C(=O)N[C@@H](CCCNC(=N)N)C(=O)N[C@@H](CCCNC(=N)N)C(N)=O)C(C)C [Ac-VCRRR-NH2] (Ac-VCRRR-NH2)
α7-nAChR [1]
  %Inhibition of α7-nAChR: 5.9%

## CC(=O)N[C@H](C(=O)N[C@@H](CO)C(=O)N[C@@H](CCCCN)C(=O)N[C@@H](CCCCN)C(=O)N[C@@H](CCCNC(=N)N)C(N)=O)C(C)C [Ac-VSKKR-NH2] (Ac-VSKKR-NH2)
α7-nAChR [1]
  %Inhibition of α7-nAChR: 48.9%

## CC(=O)N[C@H](C(=O)N[C@@H](CO)C(=O)N[C@@H](CCCNC(=N)N)C(=O)N[C@@H](CCCNC(=N)N)C(=O)N[C@@H](CCCNC(=N)N)C(N)=O)C(C)C [CN-105, Ac-VSRRR-NH2] (Ac-VSRRR-NH2)
NMDA receptor
  Direct effect on glutamate-induced currents, NMDA receptor: did not directly inhibit
α4β2-nAChR
  IC50: 500 nM
[2]; 0.1 mg/kg
  Kel: 0.566 ± 0.156 h⁻¹
[2]; 0.5 mg/kg
  Kel: 0.481 ± 0.058 h⁻¹
[2]; 2.5 mg/kg
  Kel: 0.445 ± 0.054 h⁻¹
In vivo [3]; 0.1 mg/kg
  AUC(0-t): 348 ± 33.7 ng·h/mL
  Cmax: 320 ± 20.2 ng/mL
  Tmax: 30 min
  Vd: 0.564 ± 0.271 L/kg
  clearance: 4.75 mL/min/kg
  half-life: 82.8 ± 39.6 min
In vivo [3]; 0.5 mg/kg
  AUC(0-t): 1650 ± 209 ng·h/mL
  Cmax: 1500 ± 251 ng/mL
  Tmax: 30 min
  Vd: 0.642 ± 0.086 L/kg
  clearance: 5.12 mL/min/kg
  half-life: 87.6 ± 10.3 min
In vivo [3]; 2.5 mg/kg
  AUC(0-t): 8300 ± 1200 ng·h/mL
  Cmax: 7460 ± 1190 ng/mL
  Tmax: 30 min
  Vd: 0.691 ± 0.107 L/kg
  clearance: 5.08 mL/min/kg
  half-life: 94.8 ± 12 min
[4]; 1 mm2 area at infarct margin
  Density of viable neurons (NeuN+ cells): higher
[4]; 1 mm2 area
  Number of β3-GABAAR+ cells at infarct margin: unaffected
[4]; primary somatosensory cortex, 1 mm2 area
  Density of α7-nAChR+ cells at infarct margin versus vehicle: higher density
[4]; 0.1 to 0.4 mg/kg single iv 30 min after reperfusion
  Infarct volume: significantly reduced
[5]; rat hippocampal brain slice, CN-105 200 μM as printed in Figure 3 legend
  Spontaneous EPSC (sEPSC) frequency: attenuation
[5]; rat hippocampal brain slices, holding +50 mV
  Evoked EPSC mediated by NMDA receptor versus control: significantly lower
[5]; rat hippocampal brain slices, holding -70 mV
  Evoked EPSC mediated by AMPA receptor versus control: significantly lower
[5]; tetrodotoxin added to block all AP firings
  NMDA receptor-mediated EPSC with tetrodotoxin (mEPSC): no longer able to affect
In vivo [6]; 0.1 mg/kg
  AUC(0-t): 125 ± 14.3 ng·h/mL
  C0: 560 ± 181 ng/mL
  Cmax: 410 ± 90.5 ng/mL
  Tmax: 2.3 ± 0.948 min
  Vd: 0.385 ± 0.0711 L/kg
  clearance: 13.2 mL/min/kg
  half-life: 20.2 ± 2.52 min
In vivo [6]; 0.3 mg/kg
  AUC(0-t): 504 ± 56.6 ng·h/mL
  C0: 2250 ± 463 ng/mL
  Cmax: 1570 ± 211 ng/mL
  Tmax: 2 min
  Vd: 0.342 ± 0.0363 L/kg
  clearance: 9.8 mL/min/kg
  half-life: 24.3 ± 3.3 min
In vivo [6]; 1 mg/kg
  AUC(0-t): 1800 ± 192 ng·h/mL
  C0: 7680 ± 1740 ng/mL
  Cmax: 5320 ± 906 ng/mL
  Tmax: 2 min
  Vd: 0.5 ± 0.085 L/kg
  clearance: 9.28 mL/min/kg
  half-life: 37.2 ± 3.87 min
In vivo [6]; 3 mg/kg
  AUC(0-t): 5920 ± 508 ng·h/mL
  C0: 24000 ± 2360 ng/mL
  Cmax: 17000 ± 1400 ng/mL
  Tmax: 2 min
  Vd: 0.645 ± 0.137 L/kg
  clearance: 8.48 mL/min/kg
  half-life: 52.8 ± 10.2 min
Cynologous monkey; supratherapeutic dosing
  Time of gradual recovery to normal activity (about two serum clearance half-lives): ~4 h
Cynologous monkey; supratherapeutic iv dosing
  Symptoms after supratherapeutic dosing: mydriasis and ptosis
AMPA receptor
  Direct effect on glutamate-induced currents, AMPA receptor: did not directly inhibit
α7-nAChR [1]; 10 μM CN-105, HEK293 overexpressing α7-nAChR
  Effect on ACh induced current: strongly suppressed
α7-nAChR [1]; four-parameter logistic fit, read-out: IC50, inhibition of α7-nAChR
  IC50: 31 nM
α7-nAChR [1]
  %Inhibition of α7-nAChR: 61.4%
α7-nAChR [1]; voltage dependency, CN-105 40 nM
  Voltage of maximal inhibition: –80 mV
α1β1δε-nAChR
  IC50: 2100 nM
C57BL6 mice; 50 mg/kg, intubated and mechanically ventilated
  Observation after removal of isoflurane anaesthesia: extended sedation
C57BL6 mice; C57BL6 mice, 25 mg/kg tail vein
  Symptoms at lethal dose: spasm and respiratory suppression
C57BL6 mice; C57BL6 mice, 50 mg/kg, mechanical ventilation with isoflurane anaesthesia
  Mortality under intubation and mechanical ventilation: not associated with mortality
C57BL6 mice; C57BL6 mice, single tail vein injection, autonomous respiration
  LD80: 25 mg/kg
[7]; 0.1 mg/kg
  Kel: 2.09 ± 0.258 h⁻¹
[7]; 0.3 mg/kg
  Kel: 1.73 ± 0.203 h⁻¹
[7]; 1 mg/kg
  Kel: 1.13 ± 0.106 h⁻¹
[7]; 3 mg/kg
  Kel: 0.823 ± 0.204 h⁻¹

## CC1=NN(c2ccccc2)C(=O)C1 [edaravone, reference compound]
[4]; edaravone 6 mg/kg single iv 30 min after reperfusion
  Infarct volume: similar

## apoE130‐149 (peptide)
α7-nAChR [8]
  IC50 of inhibition of α7‐nAChR current (electrophysiology); given only as the concentration used, close to the IC50: 500 nM

## Ac-VSRRR-NH2 [CN‐105]
α7-nAChR [8]
  IC50 of inhibition of α7‐nAChR current (electrophysiology); given only as the concentration used, close to the IC50: 40 nM
